Columns and labels:
[1] = system: HCT-116 human colon carcinoma xenograft; assay: In vivo tumor efficacy model, mouse HCT116 human colon carcinoma xenograft
Description: In Vivo Tumor Efficacy Model
HCT-116 (1×10^6) cells in McCoy's 5A medium were aseptically injected into the subcutaneous space in the right dorsal flank of female CD-1 nude mice (age 8 weeks, Charles River) using a 23-ga needle. Tumor volumes were calculated using standard procedures (0.5×(length×width^2)). […]. Doses (0.1 mL) were administered via 22 gauge oral gavage needle. Control animals received vehicle alone. Animals were dosed once daily for 21 days, and there were 10 animals in each group. Tumor size and body weight were measured twice per week. Compounds 1 and iii were well-tolerated at all doses in this study. […]

SW480 cells = assay: BrdU cell proliferation assay in SW480 cells
Description: BrdU Cell Proliferation Assay
(§1) Cell proliferation of each cell line was measured using the cell proliferation enzyme-linked immunosorbent assay (ELISA), 5-bromo-2′-deoxyuridine (BrdU) colorimetric kit according to the manufacturer's recommendations. The assay measures cell proliferation by quantifying BrdU incorporation into replicating deoxyribonucleic acid (DNA). Briefly, each well was incubated with 10 μL of BrdU labeling reagent for 2 hours at 37° C. in a humidified cell culture chamber. After aspiration of the labeling media, the cells were fixed and denatured by adding 200 μL of ethanol to each well and incubated for 30 minutes at room temperature.
(§2) Concentration response curves were generated by calculating the decrease in optical density in samples treated with test compound relative to the DMSO-treated controls.

HCT116 cells = assay: BrdU cell proliferation assay in HCT116 cells
Description: BrdU Cell Proliferation Assay
as §1, §2

Aurora A = target: T1, Aurora A (Homo sapiens, UniProt O14965); assay: pT288 Aurora A autophosphorylation assay; assay type: cell-based; conditions: HCT-116 cells, 60 minutes treatment
T1 construct: Human tumor cells (HCT-116, obtained from ATCC) were grown on 96-well dishes; host or cells: HCT-116
T1 sequence (O14965 1-403): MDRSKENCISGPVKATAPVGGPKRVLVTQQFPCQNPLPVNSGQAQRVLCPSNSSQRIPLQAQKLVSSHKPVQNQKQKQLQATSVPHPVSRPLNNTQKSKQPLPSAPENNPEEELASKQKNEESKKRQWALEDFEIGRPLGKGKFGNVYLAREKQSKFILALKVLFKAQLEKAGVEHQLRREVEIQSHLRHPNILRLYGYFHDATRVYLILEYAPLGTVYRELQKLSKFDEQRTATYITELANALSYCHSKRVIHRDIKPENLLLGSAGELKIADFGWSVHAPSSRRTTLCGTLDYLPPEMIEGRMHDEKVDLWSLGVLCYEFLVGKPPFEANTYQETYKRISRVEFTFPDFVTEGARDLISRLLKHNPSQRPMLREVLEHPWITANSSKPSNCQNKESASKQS
Description: pT288 Aurora A Autophosphorylation Assay.
After incubation, the growth medium was replaced with 75 μL of fresh media and 25 μL of test compound was added to the cells in two-fold serial dilutions in dimethyl sulfoxide (DMSO) to achieve final concentrations ranging from 5 to 0.010 μM. Test compound at each dilution was added as replicates in 4 rows on the dish, and DMSO (20 nM) was added to each well of two columns for the untreated controls. The cells were treated with test compound or DMSO for 60 minutes at 37° C. in a humidified cell culture chamber. Cells were then fixed with 4% para-formaldehyde in phosphate-buffered saline (PBS) for 10 minutes, permeated with 0.5% Triton X-100 in PBS for 10 minutes, and washed twice in PBS.
Cells were visualized using a Discovery-1 High Content Imaging System. Images from nine or sixteen sites per well were captured at 200× magnification. Inhibition of Aurora A was determined by measuring pT288 (Aurora A autophosphorylation) fluorescent intensity within MPM2 immunopositive (mitotic) cells using Metamorph software. Concentration response curves were generated by calculating the decrease of pT288 fluorescent intensity in test compound-treated samples relative to the DMSO-treated controls, and growth inhibition (IC50) values were determined from those curves.

[2] = oral, once daily for 21 days, at each dose

Compound | in vivo potency compared with compound iii ([1]; mouse HCT116 human colon carcinoma xenograft model) | tolerability ([1]; mouse, in vivo, po) | tumor growth delay (TGD) compared with compound iii [1, 2] | tumor growth inhibition (TGI) compared with compound iii [1, 2] | BrdU SW480 LD50 (SW480 cells) | BrdU HCT116 LD50 (HCT116 cells) | IC50 (Aurora A) | tolerability ([1]; oral, once daily for 21 days, all doses, female CD-1 nude mice)
COc1cc(Nc2ncc3c(n2)-c2ccc(Cl)cc2C(c2c(F)cccc2OC)=NC3)ccc1C(=O)O [Compound 1, 4-{[9-chloro-7-(2-fluoro-6-methoxyphenyl)-5H-pyrimido[5,4-d][2]benzazepin-2-yl]amino}-2-methoxybenzoic acid] | more potent than compound iii | well-tolerated | longer tumor growth delay | greater tumor growth inhibition | 0.41 µM | 0.03 µM | – | –
O=C(O)c1ccc(Nc2ncc3c(n2)-c2ccc(Cl)cc2C(c2ccccc2F)=NC3)cc1 [i] | – | – | – | – | 6.502 µM | 0.707 µM | – | –
COc1cc(Nc2ncc3c(n2)-c2ccc(Cl)cc2C(c2ccccc2F)=NC3)ccc1C(=O)O [ii] | – | – | – | – | 7.579 µM | 0.758 µM | 150 nM | –
COc1cccc(F)c1C1=NCc2cnc(Nc3ccc(C(=O)O)cc3)nc2-c2ccc(Cl)cc21 [iii] | – | – | – | – | 0.94 µM | 0.13 µM | 18 nM | well-tolerated
